This is an account of results in paper PMC7993727, “Discovery of a novel AR/HDAC6 dual inhibitor for prostate cancer treatment” (Aging (Albany NY), 2021).

Experiment [1] concerns the target T1, AR (Homo sapiens, UniProt P10275).
T1 construct: The VCaP cells were transfected with MMTV-LUC for 24 hours; endogenous in cells; host or cells: VCaP
T1 sequence (P10275 1-920): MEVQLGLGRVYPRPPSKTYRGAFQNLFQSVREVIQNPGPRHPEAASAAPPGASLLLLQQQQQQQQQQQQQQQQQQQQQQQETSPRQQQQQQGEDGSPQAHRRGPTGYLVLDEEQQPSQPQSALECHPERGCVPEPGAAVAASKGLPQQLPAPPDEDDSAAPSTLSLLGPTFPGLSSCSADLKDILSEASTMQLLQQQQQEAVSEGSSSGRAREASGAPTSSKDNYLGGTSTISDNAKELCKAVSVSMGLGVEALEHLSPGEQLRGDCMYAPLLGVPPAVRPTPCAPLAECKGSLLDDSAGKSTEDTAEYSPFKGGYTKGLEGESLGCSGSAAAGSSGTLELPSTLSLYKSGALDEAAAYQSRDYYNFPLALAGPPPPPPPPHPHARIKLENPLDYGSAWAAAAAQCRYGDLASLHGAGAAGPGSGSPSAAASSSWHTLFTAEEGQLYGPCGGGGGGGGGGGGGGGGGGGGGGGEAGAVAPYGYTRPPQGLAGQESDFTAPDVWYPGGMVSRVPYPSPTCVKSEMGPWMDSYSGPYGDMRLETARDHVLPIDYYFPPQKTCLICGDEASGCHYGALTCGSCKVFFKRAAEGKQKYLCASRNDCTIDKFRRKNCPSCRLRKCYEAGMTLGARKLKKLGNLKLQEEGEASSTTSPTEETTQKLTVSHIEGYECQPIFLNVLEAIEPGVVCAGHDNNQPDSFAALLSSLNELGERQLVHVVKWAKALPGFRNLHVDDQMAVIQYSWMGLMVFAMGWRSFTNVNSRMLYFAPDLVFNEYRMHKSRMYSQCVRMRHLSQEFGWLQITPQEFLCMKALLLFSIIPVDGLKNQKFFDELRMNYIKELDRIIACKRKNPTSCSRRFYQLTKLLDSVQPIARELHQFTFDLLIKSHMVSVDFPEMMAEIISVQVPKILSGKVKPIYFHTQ
The experiment in a line: cell-based. Type of experiment: cell-based. The conditions noted are these: VCaP cells. The method, then: To evaluate the AR inhibition activities of Zeta55, an AR luciferase activity assay was performed (Table 1 and Supplementary Figure 1). […] To evaluate the HDAC inhibition activities of Zeta55, fluorescent-based HDAC assays were performed (Table 1 and Supplementary Figure 3).

Experiment [2] has as its target T2, HDAC1 (Homo sapiens, UniProt Q13547).
T2 construct: purchased BPS Bioscience
The experiment in a line: fluorescent-based HDAC assay. Type of experiment: biochemical. The method, then:
(§1) Commercial fluorescent assay kits were used to measure the activities of HDAC (BPS Bioscience). Briefly, the tested compounds were diluted in DMSO into a 96-well plate, and then assay buffer, HDAC, and substrate were added. The plate was incubated at 37° C for 30 minutes for enzymatic reactions, and the developer was added. After 10 minutes of incubation, the generated fluorescence was measured at an excitation of 380 nm and an emission of 460 nm.

In experiment [3] the target is T3, HDAC3 (Homo sapiens, UniProt O15379).
T3 construct: purchased BPS Bioscience
Nature of the experiment: fluorescent-based HDAC assay. Type of experiment: biochemical. The method, then: as §1

The target of experiment [4] is T4, HDAC4 (Homo sapiens, UniProt P56524).
T4 construct: purchased BPS Bioscience
Nature of the experiment: fluorescent-based HDAC assay. Type of experiment: biochemical. The method, then:
as §1

Experiment [5] concerns LNCaP cells. Nature of the experiment: cell proliferation assay. Type of experiment: cell-based. The conditions noted are these: Homo sapiens, 72 h, read-out: IC50 values proliferation LNCaP. Here is the method:
(§2) After 7 days, cell viability was measured using a CellTiter 96® AQueous One Solution Cell Proliferation Assay kit (Promega).

The subject of experiment [6] is VCaP cells. The experiment in a line: cell proliferation assay. Type of experiment: cell-based. Here is the method: as §2
In experiment [7] the test system is DU145 cells. The experiment in a line: cell proliferation assay. Type of experiment: cell-based. Conditions: Homo sapiens, DU-145, 72 h, read-out: IC50 values proliferation DU145.
Experiment [8] concerns HEK293 cells. The experiment in a line: cell proliferation assay. Type of experiment: cell-based. Conditions: Homo sapiens, HEK293, 72 h, read-out: IC50 values proliferation HEK293.
Experiment [9] concerns PSA. Nature of the experiment: PSA mRNA (qRT-PCR) and protein (Western blot) expression in VCaP cells. Type of experiment: cell-based. Conditions: 10 nM DHT, 24 hours. Here is the method: (§3) RNA expression level was analyzed by qRT-PCR and protein expression level was analyzed by Western blot. […] (I) Representative immunofluorescence microscopic images of VCaP cells for checking the subcellular localization of AR.
(§4) The RNA of VCaP cells was extracted using a Simply P Total RNA Extraction kit (Bioer technology) and cDNA was synthesized using a SMARTer PCR cDNA Synthesis Kit (Clontech). PSA and β-actin primers were synthesized by Sangon Biotech according to previous literature. Real-time PCR was performed using the PowerUp SYBR™ Green kit (ThermoFisher). The PCR program was run on a LightCycler 480II (Roche) and set as follows: 2 minutes at 95° C followed by 40 cycles of 30 seconds at 95° C, 15 seconds at 60° C and 30 seconds at 72° C. Data were quantified using the 2-ΔΔCt method based on the Ct values of PSA and β-actin from two parallel experiments performed in triplicate.
(§5) The whole-cell extracts were prepared in lysis buffer with a protease inhibitor cocktail (Bimake), while the xenograft tissue extracts were prepared in 0.5% Nonidet P 40 Substitute solution (Biosharp) with cocktail protease inhibitor (Bimake). Each sample containing 30 μg of total protein was loaded onto 10% SDS-PAGE and electrotransferred onto polyvinylidene fluoride membranes. […]

The subject of experiment [10] is TMPRSS2. Nature of the experiment: TMPRSS2 mRNA (qRT-PCR) and protein (Western blot) expression in VCaP cells. Type of experiment: cell-based. Conditions: 10 nM DHT, 24 hours. Here is the method: as §3, §4, §5
Experiment [11] addresses T1, AR. Type of experiment: cell-based. The conditions noted are these: VCaP cells, 24 hours. Here is the method: as §3
To evaluate the HDAC6 inhibition ability of Zeta55 in VCaP cells, the acetylation status of α-tubulin protein (a HDAC6 substrate) was assessed using western blot. […] We assessed the protein level of AR in VCaP cells.
The whole-cell extracts were prepared in lysis buffer with a protease inhibitor cocktail (Bimake), while the xenograft tissue extracts were prepared in 0.5% Nonidet P 40 Substitute solution (Biosharp) with cocktail protease inhibitor (Bimake). Each sample containing 30 μg of total protein was loaded onto 10% SDS-PAGE and electrotransferred onto polyvinylidene fluoride membranes. The membranes were blocked with 5% skimmed milk in PBST at room temperature for 2 hours and incubated with primary antibodies at 4° C overnight. After the membranes were washed with PBST three times, they were incubated with horseradish peroxidase-conjugated anti-rabbit or anti-mouse secondary antibody at room temperature for 1 hour. Chemiluminescent detection was performed with WesternBright ECL (Advansta). The immunoblots were visualized using the FluorChem FC3 system (ProteinSimple).

The target in experiment [12] is T1, AR. Type of experiment: cell-based. The conditions noted are these: VCaP cells, 10% FBS, 10 μM, 24 hours.
Experimental: Cells were fixed with 4% paraformaldehyde for 15 minutes at room temperature, permeabilized with immunostaining permeate for 10 minutes and blocked with 5% BSA containing 1% Tween-20 for 1 hour. After overnight Immunostain with AR Rabbit monoclonal antibody (1:400;CST,5153S) at 4° C, a Cy3 conjugated Goat Anti-Rabbit IgG (1:300; Servicebio, GB21303) reacted for 1 hour. DAPI (4’,6-diamidine-2’-phenylindole, Servicebio, G1012) stained the nuclear to bule for 10 minutes in the dark. Washing three times with PBS between each step. Immunofluorescence images were acquired by fluorescence microscopy using a NIKON ECLIPSE CI microscope (Nikon Corporation; magnification).

T2 sequence (Q13547 whole entry): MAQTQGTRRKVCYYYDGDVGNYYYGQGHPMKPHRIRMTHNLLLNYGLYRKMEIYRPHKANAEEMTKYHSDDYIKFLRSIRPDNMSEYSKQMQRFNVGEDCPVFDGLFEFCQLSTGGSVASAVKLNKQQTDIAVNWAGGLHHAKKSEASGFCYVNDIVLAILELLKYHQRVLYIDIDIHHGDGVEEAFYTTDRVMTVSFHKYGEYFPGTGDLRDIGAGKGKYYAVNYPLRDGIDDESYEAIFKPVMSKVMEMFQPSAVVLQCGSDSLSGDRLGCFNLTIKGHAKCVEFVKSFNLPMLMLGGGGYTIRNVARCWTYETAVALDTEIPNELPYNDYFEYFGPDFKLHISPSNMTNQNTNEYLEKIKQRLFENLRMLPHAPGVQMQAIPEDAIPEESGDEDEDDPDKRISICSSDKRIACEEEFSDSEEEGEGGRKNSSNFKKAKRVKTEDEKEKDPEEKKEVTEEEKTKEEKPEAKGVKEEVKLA
T4 sequence (P56524 whole entry): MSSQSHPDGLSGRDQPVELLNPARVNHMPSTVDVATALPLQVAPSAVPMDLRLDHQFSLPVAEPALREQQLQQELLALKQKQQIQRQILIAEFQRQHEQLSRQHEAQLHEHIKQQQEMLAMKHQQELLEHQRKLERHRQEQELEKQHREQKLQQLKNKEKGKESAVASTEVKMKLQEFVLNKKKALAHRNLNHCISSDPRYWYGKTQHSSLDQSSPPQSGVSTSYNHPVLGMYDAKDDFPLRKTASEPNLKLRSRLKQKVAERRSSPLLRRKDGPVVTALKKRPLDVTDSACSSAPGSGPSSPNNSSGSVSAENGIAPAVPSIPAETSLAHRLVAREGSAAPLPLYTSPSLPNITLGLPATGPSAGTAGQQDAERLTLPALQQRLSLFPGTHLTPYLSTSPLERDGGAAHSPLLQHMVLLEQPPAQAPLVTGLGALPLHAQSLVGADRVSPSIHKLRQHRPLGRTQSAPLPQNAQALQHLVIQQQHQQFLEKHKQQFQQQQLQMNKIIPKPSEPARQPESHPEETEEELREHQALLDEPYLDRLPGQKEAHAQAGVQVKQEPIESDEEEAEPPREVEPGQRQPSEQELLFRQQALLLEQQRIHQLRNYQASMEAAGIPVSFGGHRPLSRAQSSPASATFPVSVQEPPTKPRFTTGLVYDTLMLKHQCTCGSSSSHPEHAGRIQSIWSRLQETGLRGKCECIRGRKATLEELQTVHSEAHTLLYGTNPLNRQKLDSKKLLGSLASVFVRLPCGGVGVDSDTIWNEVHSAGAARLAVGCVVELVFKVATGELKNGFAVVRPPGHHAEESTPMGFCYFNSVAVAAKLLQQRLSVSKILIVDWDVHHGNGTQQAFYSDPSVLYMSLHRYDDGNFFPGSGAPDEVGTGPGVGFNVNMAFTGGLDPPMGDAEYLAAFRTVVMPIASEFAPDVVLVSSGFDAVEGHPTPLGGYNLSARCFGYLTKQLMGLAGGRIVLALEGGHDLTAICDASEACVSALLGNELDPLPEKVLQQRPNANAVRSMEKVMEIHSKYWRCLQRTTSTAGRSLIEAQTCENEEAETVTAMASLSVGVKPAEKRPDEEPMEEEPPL
T3 sequence (O15379 whole entry): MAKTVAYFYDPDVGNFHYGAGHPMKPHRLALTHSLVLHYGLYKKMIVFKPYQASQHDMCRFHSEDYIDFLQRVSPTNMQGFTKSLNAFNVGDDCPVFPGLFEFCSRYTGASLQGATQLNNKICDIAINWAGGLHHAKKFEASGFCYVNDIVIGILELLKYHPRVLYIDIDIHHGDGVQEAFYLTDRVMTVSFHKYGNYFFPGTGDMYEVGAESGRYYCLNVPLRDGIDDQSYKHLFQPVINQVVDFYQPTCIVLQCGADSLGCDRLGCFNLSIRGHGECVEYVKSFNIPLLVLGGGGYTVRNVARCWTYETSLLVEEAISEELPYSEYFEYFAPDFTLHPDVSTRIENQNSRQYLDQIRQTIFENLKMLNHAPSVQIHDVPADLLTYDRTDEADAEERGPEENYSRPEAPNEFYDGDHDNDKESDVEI
T3 sequence (Q9Y618 395-489 partner limits assumed): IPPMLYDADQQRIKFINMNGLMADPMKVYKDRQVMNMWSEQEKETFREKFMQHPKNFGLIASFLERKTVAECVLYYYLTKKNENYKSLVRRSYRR

Take `N#Cc1ccc(N2C(=O)C3(CCC3)N(c3ccc(C(=O)NO)c(F)c3)C2=S)cc1C(F)(F)F` [Zeta55]: the IC50 in experiment [1] (AR luciferase activity assay, MMTV-LUC, with 10 nM DHT) is 630 nM; in experiment [2], > 20 µM; in experiment [3], > 20 µM; in experiment [4], > 20 µM; in experiment [5], 8.36 µM; in [6] (Homo sapiens, VCaP, 168 h, read-out: IC50 values proliferation VCaP), 2470 nM. Moreover, the IC50 in [7] was 45.7 µM; in [8], > 50 µM. For the same compound, in experiment [1] (in the presence of DHT), the “AR antagonist activity, AR-mediated expression of reporter gene” value is recorded as “potently inhibited”. Moreover, in experiment [1] (without DHT, 10 μM), the “AR agonist activity, expression of reporter gene” value is given as “did not induce the expression of reporter gene”. Also, the “anti-proliferation activity relative to MDV3100” value in experiment [6] (VCaP cells) amounted to 4.5 fold. Moreover, the “DHT-induced endogenous mRNA and protein expression of PSA” value in experiment [9] is “significantly suppressed”. The “DHT-induced endogenous mRNA and protein expression of TMPRSS2” value in experiment [10] is on record as “significantly suppressed”. In experiment [11], the AR protein level result is reported as “decreased AR protein level in a dose-dependent manner”. Also, the “subcellular localization of AR” value in [12] is “distributed in both cytoplasm and nucleus”.
